Laboratory results taken from patent US20090018134A1, “Compounds - 945” (AstraZeneca AB, priority 2007, published 2009).
Where two headings read alike, the source gives them in different places.

Molecular target: T1, mTOR (Homo sapiens, UniProt P42345)
T1 construct: FLAG; made in house
Experiment: In Vitro mTOR Kinase Assay (Echo), Test (a)(ii)
Assay type: biochemical
In short: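 Compounds were acoustically dispensed, then incubated with FLAG-tagged mTOR (1362-2549) for 2 hours at room temperature. Reactions were quenched with EDTA plus detection antibody and AlphaScreen beads and left overnight in the dark before reading. Loss of phospho-T389 signal gave IC50 values.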

[1] = table of enzyme assay Test (a)(ii), read-out: Test (a)(ii) IC50
[2] = read-out: mTOR Kinase Assay (Echo)

T1 sequence (P42345 1362-2549): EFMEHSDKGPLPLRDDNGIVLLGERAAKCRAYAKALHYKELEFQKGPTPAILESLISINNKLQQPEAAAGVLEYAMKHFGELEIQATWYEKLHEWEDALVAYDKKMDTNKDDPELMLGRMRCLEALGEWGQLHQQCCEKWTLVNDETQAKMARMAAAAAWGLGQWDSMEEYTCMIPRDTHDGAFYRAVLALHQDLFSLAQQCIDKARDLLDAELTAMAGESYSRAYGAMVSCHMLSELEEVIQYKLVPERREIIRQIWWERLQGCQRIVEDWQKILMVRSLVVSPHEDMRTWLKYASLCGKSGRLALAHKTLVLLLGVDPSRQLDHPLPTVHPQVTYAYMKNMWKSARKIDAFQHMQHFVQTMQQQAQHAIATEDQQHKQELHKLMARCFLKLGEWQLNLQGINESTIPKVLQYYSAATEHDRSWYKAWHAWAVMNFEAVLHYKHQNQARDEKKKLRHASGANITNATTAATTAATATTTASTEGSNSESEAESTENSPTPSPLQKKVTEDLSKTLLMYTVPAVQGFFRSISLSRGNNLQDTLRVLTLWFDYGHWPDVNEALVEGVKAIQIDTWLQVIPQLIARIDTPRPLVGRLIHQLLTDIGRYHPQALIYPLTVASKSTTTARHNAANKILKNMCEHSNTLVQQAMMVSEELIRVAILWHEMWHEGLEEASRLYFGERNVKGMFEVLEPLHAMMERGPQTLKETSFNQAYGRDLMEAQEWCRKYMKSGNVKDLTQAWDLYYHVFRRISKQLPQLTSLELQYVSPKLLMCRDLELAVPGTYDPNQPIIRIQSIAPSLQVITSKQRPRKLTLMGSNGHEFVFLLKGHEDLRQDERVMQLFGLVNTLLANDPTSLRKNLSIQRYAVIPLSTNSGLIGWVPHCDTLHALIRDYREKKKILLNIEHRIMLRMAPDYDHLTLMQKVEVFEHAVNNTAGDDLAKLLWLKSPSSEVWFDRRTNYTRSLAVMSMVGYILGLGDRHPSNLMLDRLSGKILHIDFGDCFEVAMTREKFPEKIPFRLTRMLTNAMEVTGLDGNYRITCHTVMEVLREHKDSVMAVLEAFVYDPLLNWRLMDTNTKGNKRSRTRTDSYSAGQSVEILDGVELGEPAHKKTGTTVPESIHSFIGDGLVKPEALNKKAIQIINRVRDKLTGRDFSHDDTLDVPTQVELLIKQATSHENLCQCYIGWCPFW

Compound	IC50 [1]	IC50 [2]
COc1ccc(NC(=O)Nc2ccc(-c3nc(N4CCOC[C@@H]4C)cc(C4(S(C)(=O)=O)CC4)n3)cc2)cn1 [Example 2o, 3-(6-methoxypyridin-3-yl)-1-[4-[4-[(3S)-3-methylmorpholin-4-yl]-6-(1-methylsulfonylcyclopropyl)pyrimidin-2-yl]phenyl]urea]	0.403 nM	0.851 nM
CNC(=O)Nc1ncc(-c2nc(N3CCOC[C@@H]3C)cc(C3(S(C)(=O)=O)CCCC3)n2)cn1 [Example 14t, 3-methyl-1-[5-[4-[(3S)-3-methylmorpholin-4-yl]-6-(1-methylsulfonylcyclopentyl)pyri-midin-2-yl]pyrimidin-2-yl]urea]	197 nM	
1-[4-[4-[1-(2,4-difluorophenyl)sulfonylcyclopro-pyl]-6-[(3S)-3-methylmorpholin-4-yl]pyrimidin-2-yl]phenyl]-3-(2-hydroxyethyl)urea [Example 57b]	4.57 nM	
CCS(=O)(=O)C1(c2cc(N3CCOC[C@@H]3C)nc(-c3ccc(NC(=O)NC(C)(C)CO)cc3)n2)CCC1 [Example 87d, 1-[4-[4-(1-ethylsulfonylcyclobutyl)-6-[(3S)-3-methylmorpholin-4-yl]pyrimidin-2-yl]phenyl]-3-(1-hydroxy-2-methylpropan-2-yl)urea]	17.7 nM	
CCNC(=S)Nc1ccc(-c2nc(N3CCOC[C@@H]3C)cc(C3(S(=O)(=O)CCCO)CCC3)n2)cc1 [Example 99e, 1-ethyl-3-[4-[4-[1-(3-hydroxypropylsulfonyl)cyclobutyl]-6-[(3S)-3-methylmorpholin-4-yl]pyrimidin-2-yl]phenyl]thiourea]	31.7 nM	
CNC(=O)Nc1ccc(-c2nc(N3CCOCC3)cc(C3(C(=O)N4CCN(C)CC4)CC3)n2)cc1 [Example 32d, 3-methyl-1-[4-[4-[1-(4-methylpiperazine-1-carbonyl)cyclopropyl]-6-morpholin-4-ylpyrimidin-2-yl]phenyl]urea]	13.1 nM	
CN(C(=O)C1(c2cc(N3CCOCC3)nc(-c3ccc(NC(=O)NCCO)cc3)n2)CC1)C1CC1 [Example 34c, N-cyclopropyl-1-[2-[4-(2-hydroxyethylcarbamoylamino)phe-nyl]-6-morpholin-4-ylpyrimidin-4-yl]-N-methylcyclopropane-1-carboxamide]	3.45 nM	
CCNC(=O)Nc1ccc(-c2nc(N3CCOC[C@@H]3C)cc(C3(S(=O)(=O)CCCO)CCOCC3)n2)cc1 [Example 36cb, 1-ethyl-3-[4-[4-[4-(3-hydroxypropylsulfonyl)oxan-4-yl]-6-[(3S)-3-methylmorpholin-4-yl]pyrimidin-2-yl]phenyl]urea]	163 nM	
C[C@H]1COCCN1c1cc(C2(S(=O)(=O)c3ccncc3)CC2)nc(-c2ccc(NC(=S)NC3CC3)cc2)n1 [Example 37ae, 3-cyclopropyl-1-[4-[4-[(3S)-3-methylmorpholin-4-yl]-6-(1-pyridin-4-ylsulfonylcyclopropyl)pyrimidin-2-yl]phenyl]thiourea]	9.52 nM	
Cn1cc(NC(=O)Nc2ccc(-c3nc(N4CCOCC4)cc(C4(S(=O)(=O)C5CC5)CC4)n3)cc2)cn1 [Example 13i, 1-[4-[4-(1-cyclopropylsulfonylcyclopropyl)-6-morpholin-4-ylpyrimidin-2-yl]phenyl]-3-(1-methylpyrazol-4-yl)urea]	2.75 nM	
C[C@H]1COCCN1c1cc(C2(S(=O)(=O)c3ccc(F)cc3)CC2)nc(-c2cnc(NC(=O)NCCO)nc2)n1 [Example 14g, 1-[5-[4-[1-(4-fluorophenyl)sulfonylcyclopro-pyl]-6-[(3S)-3-methylmorpholin-4-yl]pyrimidin-2-yl]pyrimidin-2-yl]-3-(2-hydroxyethyl)urea]	85.7 nM	
CC(C)CNC(=O)Nc1ccc(-c2nc(N3CCOC[C@@H]3C)cc(C3(S(C)(=O)=O)CCCC3)n2)cc1 [Example 4i, 1-[4-[4-[(3S)-3-methylmorpholin-4-yl]-6-(1-methylsulfonylcyclopentyl)pyrimidin-2-yl]phenyl]-3-(2-methylpropyl)urea]		11.5 nM
C[C@H]1COCCN1c1cc(C2(S(=O)(=O)c3ccc(F)cc3)CC2)nc(-c2ccc(NC(=O)Nc3ncns3)cc2)n1 [Example 36z, 1-[4-[4-[1-(4-fluorophenyl)sulfonylcyclopropyl]-6-[(3S)-3-methylmorpholin-4-yl]pyrimidin-2-yl]phenyl]-3-(1,2,4-thiadiazol-5-yl)urea]	2.08 nM	
C[C@H](CO)NC(=S)Nc1ccc(-c2nc(N3CCOC[C@@H]3C)cc(C3(S(C)(=O)=O)CCC3)n2)cc1 [Example 62c, 3-[(2R)-1-hydroxypropan-2-yl]-1-[4-[4-[(3S)-3-methylmorpholin-4-yl]-6-(1-methylsulfonylcyclobutyl)pyrimi-din-2-yl]phenyl]thiourea]	37.5 nM	
CCNC(=O)Nc1ccc(-c2nc(N3CCOC[C@@H]3C)cc(C3(S(=O)(=O)CCO)CC3)n2)cc1 [Example 15a, 3-ethyl-1-[4-[4-[1-(2-hydroxyethylsulfonyl)cyclopropyl]-6-[(3S)-3-methylmorpholin-4-yl]pyrimidin-2-yl]phenyl]urea]	0.591 nM	
CNC(=O)Nc1ccc(-c2nc(N3CCOC[C@@H]3C)cc(C3(S(=O)(=O)c4ccccc4F)CC3)n2)cc1 [Example 58, 1-[4-[4-[1-(2-Fluorophenyl)sulfonylcyclopropyl]-6-[(3S)-3-methylmorpholin-4-yl]pyrimidin-2-yl]phenyl]-3-methylurea]	1.15 nM	

Next, values leading:

IC50 [1]	IC50 [2]	Compound
5.22 nM		CCNC(=O)Nc1ccc(-c2nc(N3CCOC[C@@H]3C)cc(C3(S(=O)(=O)c4c(F)cccc4F)CC3)n2)cc1 [Example 86a, 1-[4-[4-[1-(2,6-difluorophenyl)sulfonylcyclopropyl]-6-[(3S)-3-methylmorpholin-4-yl]pyrimidin-2-yl]phenyl]-3-ethylurea]
	9.88 nM	CC(C)CNC(=O)Nc1ccc(-c2nc(N3CCOC[C@@H]3C)cc(C3(S(C)(=O)=O)CCC3)n2)cc1 [Example 5i, 1-[4-[4-[(3S)-3-methylmorpholin-4-yl]-6-(1-methylsulfonylcyclobutyl)pyrimidin-2-yl]phenyl]-3-(2-methylpropyl)urea]
	39.2 nM	C[C@H]1COCCN1c1cc(C2(S(C)(=O)=O)CCCC2)nc(-c2ccc(NC(=O)NCc3ncc[nH]3)cc2)n1 [Example 4n, 3-(1H-imidazol-2-ylmethyl)-1-[4-[4-[(3S)-3-methylmorpholin-4-yl]-6-(1-methylsulfonylcyclopentyl)pyrimidin-2-yl]phenyl]urea]
	0.89 nM	C[C@H]1COCCN1c1cc(C2(S(=O)(=O)C3CC3)CC2)nc(-c2ccc(NC(=O)Nc3ncns3)cc2)n1 [Example 3w, 1-[4-[4-(1-cyclopropylsulfonylcyclopropyl)-6-[(3S)-3-methylmorpholin-4-yl]pyrimidin-2-yl]phenyl]-3-(1,2,4-thiadiazol-5-yl)urea]
	3.85 nM	C[C@H]1COCCN1c1cc(C2(S(=O)(=O)C3CC3)CC2)nc(-c2ccc(NC(=O)Nc3ccccn3)cc2)n1 [Example 3b, 1-[4-[4-(1-cyclopropylsulfonylcyclopropyl)-6-[(3S)-3-methylmorpholin-4-yl]pyrimidin-2-yl]phenyl]-3-pyridin-2-yl-urea]
9.56 nM		CC[C@H]1COCCN1c1cc(C2(S(C)(=O)=O)CC2)nc(-c2ccc(NC(=O)NC)cc2)n1 [Example 84, 1-[4-[4-[(3S)-3-Ethylmorpholin-4-yl]-6-(1-methylsulfonylcyclopropyl)pyrimidin-2-yl]phenyl]-3-methylurea]
3.57 nM		O=C(Nc1ccc(-c2nc(N3CCOCC3)cc(C3(S(=O)(=O)C4CC4)CC3)n2)cc1)NC1CC1 [Example 13, 3-Cyclopropyl-1-[4-[4-(1-cyclopropylsulfonylcyclopropyl)-6-morpholin-4-ylpyrimidin-2-yl]phenyl]urea]
14 nM		CCNC(=O)Nc1ccc(-c2nc(N3CCOCC3)cc(C3(S(=O)(=O)c4ccc(F)cc4)CC3)n2)cc1 [Example 36ao, 1-ethyl-3-[4-[4-[1-(4-fluorophenyl)sulfonylcyclopropyl]-6-morpholin-4-ylpyrimidin-2-yl]phenyl]urea]
	5.93 nM	C[C@H]1COCCN1c1cc(C2(S(=O)(=O)c3ccncc3)CC2)nc(-c2ccc(NC(=O)NC(C)(C)CO)cc2)n1 [Example 6j, 3-(1-hydroxy-2-methyl-propan-2-yl)-1-[4-[4-[(3S)-3-methylmorpholin-4-yl]-6-(1-pyridin-4-ylsulfonylcyclopropyl)pyrimidin-2-yl]phenyl]urea]
15.1 nM		C[C@H]1COCCN1c1cc(C2(S(=O)(=O)C3CCOCC3)CC2)nc(-c2ccc(NC(=O)NC3CCC3)cc2)n1 [Example 94f, 3-cyclobutyl-1-[4-[4-[(3S)-3-methylmorpholin-4-yl]-6-[1-(oxan-4-ylsulfonyl)cyclopropyl]pyrimidin-2-yl]phenyl]urea]
15.7 nM		C[C@H]1COCCN1c1cc(C2(S(=O)(=O)CCCO)CCC2)nc(-c2ccc(NC(=O)NCC(F)F)cc2)n1 [Example 43o, 3-(2,2-difluoroethyl)-1-[4-[4-[1-(3-hydroxypropylsulfonyl)cyclobu-tyl]-6-[(3S)-3-methylmorpholin-4-yl]pyrimidin-2-yl]phenyl]urea]
6.67 nM		C[C@H]1COCCN1c1cc(C2(S(=O)(=O)C3CC3)CCC2)nc(-c2ccc(NC(=O)NC3CC3)cc2)n1 [Example 36e, 3-cyclopropyl-1-[4-[4-(1-cyclopropylsulfonylcyclobutyl)-6-[(3S)-3-methylmorpholin-4-yl]pyrimidin-2-yl]phenyl]urea]
	4.3 nM	CNC(=O)Nc1ccc(-c2nc(N3CCOCC3)cc(C3(S(C)(=O)=O)CCCC3)n2)cc1 [Example 12k, 3-methyl-1-[4-[4-(1-methylsulfonylcyclopentyl)-6-morpholin-4-ylpyrimidin-2-yl]phenyl]urea]
119 nM		C[C@H]1COCCN1c1cc(C2(S(=O)(=O)C3CCCCC3)CC2)nc(-c2ccc(NC(=O)NCCN(C)C)cc2)n1 [Example 26c, 1-[4-[4-(1-cyclohexylsulfonylcyclopropyl)-6-[(3S)-3-methylmorpholin-4-yl]pyrimidin-2-yl]phenyl]-3-(2-dimethylaminoethyl)urea]
